According to PubChem BioAssay (NCI):
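How tested: cells in 96-well plates exposed to compound for 48 hours at five concentrations. TGI: total growth inhibition.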

Experiments:
Assay in all cases: NCI-60 cell line screen, 48 h
[1] = system: EKVX NSCLC
[2] = system: OVCAR-4 ovarian
[3] = system: OVCAR-8 ovarian
[4] = system: SK-MEL-2 melanoma
[5] = system: HT29 colon
[6] = system: RXF 393 renal
[7] = system: SK-OV-3 ovarian
[8] = system: HCT-15 colon
[9] = system: SR leukemia
[10] = system: UACC-62 melanoma
[11] = system: HOP-92 NSCLC
[12] = system: MDA-MB-435
[13] = system: U251 CNS
[14] = system: NCI-H23 lung
[15] = system: 786-0 renal
[16] = system: MCF7 breast
[17] = system: COLO 205 colon
[18] = system: T-47D breast
[19] = system: SNB-75 CNS
[20] = system: OVCAR-3 ovarian

Compound	TGI [1] [µM]	TGI [2] [µM]	TGI [3] [µM]	TGI [4] [µM]	TGI [5] [µM]	TGI [6] [µM]	TGI [7] [µM]	TGI [8] [µM]	TGI [9] [µM]	TGI [10] [µM]	TGI [11] [µM]	TGI [12] [µM]	TGI [13] [µM]	TGI [14] [µM]	TGI [15] [µM]	TGI [16] [µM]	TGI [17] [µM]	TGI [18] [µM]	TGI [19] [µM]	TGI [20] [µM]
CC(C)(C)[C@@H]1NC(=O)CN1C(=O)OCc1ccccc1	> 100	> 100	> 100	> 100	> 100	> 100	> 100	> 100	> 100	> 100	> 100	> 100	> 100	> 100	> 100	> 100	> 100	> 100	> 100	–
CCOc1ccc(N=NC2C(=O)N(C(=O)CC(=O)Nc3ccc(Cl)cc3)N=C2C)cc1 (stereo not given)	> 100	> 100	> 100	> 100	> 100	> 100	> 100	–	> 100	> 100	> 100	> 100	> 100	> 100	> 100	> 100	> 100	> 100	> 100	> 100
CCOC(=O)c1ccc(N=C/C=C(\Nc2ccc(C(=O)OCC)cc2)c2ccc3ccccc3c2)cc1	–	80.3	> 100	66.9	49	57.3	> 100	61.1	41.6	30.5	> 100	33.3	> 100	54	64.1	67	32.6	43.2	> 100	83.5
COC(=O)CSc1[nH]c2nc(C)nc(Nc3ccccc3)c2c1C#N	> 10	> 10	> 10	–	> 10	> 10	> 10	> 10	> 10	> 10	> 10	> 10	–	> 10	> 10	> 10	> 10	> 10	> 10	–
CCOC(=O)c1c(OCC)[nH]c(=O)c(C(c2ccc(F)cc2)c2c(O)c(C(=O)OCC)c(OCC)[nH]c2=O)c1O	33.2	48.3	28.1	37	31.7	23	–	40.4	29	30.3	18.1	37.7	36.3	43.6	39.7	60.7	79.8	32.7	–	39.7
COC(=O)CCCc1ccc2c(c1)CCC2	–	> 100	> 100	> 100	–	–	> 100	> 100	> 100	> 100	> 100	> 100	> 100	> 100	> 100	> 100	> 100	> 100	> 100	> 100
O=[N+]([O-])c1ccccc1S(=O)(=O)N1CCCc2cc(Cl)ccc21	> 100	> 100	> 100	> 100	51.3	74.1	> 100	> 100	> 79.8	> 100	> 100	41.7	–	> 100	> 100	> 80.3	> 100	96.5	> 100	> 100
CCN(CC)P1(=S)Oc2ccc3ccccc3c2-c2c(ccc3ccccc23)O1	> 100	> 100	> 100	> 100	> 100	–	> 100	> 100	> 100	> 100	> 100	> 100	> 100	> 100	> 100	> 100	> 100	> 100	> 100	> 100
CC(=O)OCc1ccc(-c2nc(C#N)c(N)o2)o1	> 10	> 10	> 10	–	> 10	> 10	> 10	> 10	> 10	> 10	> 10	> 10	–	> 10	> 10	> 10	> 10	> 10	> 10	–
COC(=O)c1nc2c(C)c(O)c(O)c([C@H](C)CCC=C(C)C)c2o1	> 100	> 100	> 100	59.7	37	39.6	> 100	> 100	78.5	–	66.7	> 100	> 100	89.8	39.5	> 100	35.6	> 100	56.1	> 100
CCOC(=O)Nc1ccc(S(=O)(=O)Nc2ccc(Br)cc2)cc1	89.5	57.1	68.4	> 100	> 100	> 100	> 100	> 100	50.4	> 100	> 100	> 100	> 100	> 100	> 100	75.7	30.4	> 100	–	> 100
CCCCc1ccc(N2C(=O)c3cc(C)cnc3S2(=O)=O)cc1	> 100	> 100	> 100	> 100	> 100	> 100	> 100	> 100	> 100	–	> 100	> 100	> 100	> 100	> 100	> 100	> 100	> 100	> 100	> 100
Cc1cn2c(/C=C3/C(=O)Nc4ccccc43)c(-c3ccccc3)nc2s1	> 100	–	> 100	78.1	> 100	55.2	76.4	> 100	> 100	> 100	> 100	> 100	> 100	> 100	42.4	> 100	> 100	> 100	66.8	> 100
